Several values for one entry are separate records, joined by “and”; a condition that tells them apart may be missing. Equal values may be shown once.
Tested on: human PBMCs
Assay: LPS-induced cytokine and chemokine levels in human PBMC supernatant (Luminex, ELISA)
Type: cell-based
Settings: for CCl2, % reduction / CXCL1 % reduction / CXCL2 % reduction / MMP9 % reduction / CCl2, Mean / CXCL1, Mean / CXCL2, Mean / MMP9, Mean / CCl2, individual value / CXCL1, individual value / CXCL2, individual value / MMP9, individual value: LPS-stimulated PBMC supernatant; for CCl2, Mean / CXCL1, Mean / CXCL2, Mean / MMP9, Mean: sample size 2; for CCl2, individual value / CXCL1, individual value / CXCL2, individual value / MMP9, individual value: single replicate
[1] = LPS-stimulated human PBMC supernatant, 0.03 µM

CC[C@H]1OC(=O)[C@H](C)[C@@H](O[C@H]2C[C@@](C)(OC)[C@@H](O)[C@H](C)O2)[C@H](C)[C@@H](O[C@@H]2O[C@H](C)C[C@H](N(C)C)[C@H]2O)[C@](C)(O)C[C@@H](C)CN(C)[C@H](C)[C@@H](O)[C@]1(C)O [Azithromycin]
CCl2, % reduction (0.03 µM): -5.55%
CXCL1 % reduction (0.03 µM): -4.76%
CXCL2 % reduction (0.03 µM): 2.43%
MMP9 % reduction (0.03 µM): -1.46%
CCl2, Mean (0.03 µM): 1334 pg/mL
CXCL1, Mean (0.03 µM): 6234 pg/mL
CXCL2, Mean (0.03 µM): 4935 pg/mL
MMP9, Mean (0.03 µM): 3019 pg/mL
CCl2, individual value (0.03 µM): 1307 pg/mL and 1361 pg/mL
CXCL1, individual value (0.03 µM): 6199 pg/mL and 6268 pg/mL
CXCL2, individual value (0.03 µM): 5023 pg/mL and 4847 pg/mL
MMP9, individual value (0.03 µM): 3072 pg/mL and 2966 pg/mL
CCl2, % reduction (0.1 µM): -0.293%
CXCL1 % reduction (0.1 µM): -0.522%
CXCL2 % reduction (0.1 µM): 4.49%
MMP9 % reduction (0.1 µM): -3.72%
CCl2, Mean (0.1 µM): 1270 pg/mL
CXCL1, Mean (0.1 µM): 5984 pg/mL
CXCL2, Mean (0.1 µM): 4831 pg/mL
MMP9, Mean (0.1 µM): 3056 pg/mL
CCl2, individual value (0.1 µM): 1278 pg/mL and 1261 pg/mL
CXCL1, individual value (0.1 µM): 6035 pg/mL and 5932 pg/mL
CXCL2, individual value (0.1 µM): 4923 pg/mL and 4739 pg/mL
MMP9, individual value (0.1 µM): 3040 pg/mL and 3071 pg/mL
CCl2, % reduction (0.3 µM): -5.66%
CXCL1 % reduction (0.3 µM): -5%
CXCL2 % reduction (0.3 µM): 1.16%
MMP9 % reduction (0.3 µM): -0.427%
CCl2, Mean (0.3 µM): 1335 pg/mL
CXCL1, Mean (0.3 µM): 6237 pg/mL
CXCL2, Mean (0.3 µM): 4999 pg/mL
MMP9, Mean (0.3 µM): 3002 pg/mL
CCl2, individual value (0.3 µM): 1355 pg/mL and 1316 pg/mL
CXCL1, individual value (0.3 µM): 6416 pg/mL and 6058 pg/mL
CXCL2, individual value (0.3 µM): 4805 pg/mL and 5194 pg/mL
MMP9, individual value (0.3 µM): 2940 pg/mL and 3064 pg/mL
CCl2, % reduction (1 µM): -3.46%
CXCL2 % reduction (1 µM): 5.46%
MMP9 % reduction (1 µM): 0.166%
CCl2, Mean (1 µM): 1309 pg/mL
CXCL1, Mean (1 µM): 6015 pg/mL
CXCL2, Mean (1 µM): 4782 pg/mL
MMP9, Mean (1 µM): 2992 pg/mL
CCl2, individual value (1 µM): 1330 pg/mL and 1287 pg/mL
CXCL1, individual value (1 µM): 6000 pg/mL and 6030 pg/mL
CXCL2, individual value (1 µM): 4905 pg/mL and 4659 pg/mL
MMP9, individual value (1 µM): 2945 pg/mL
CCl2, % reduction (3 µM): -21%
CXCL1 % reduction (3 µM): -11%
CXCL2 % reduction (3 µM): -6%
MMP9 % reduction (3 µM): -3.25%
CCl2, Mean (3 µM): 1528 pg/mL
CXCL1, Mean (3 µM): 6579 pg/mL
CXCL2, Mean (3 µM): 5371 pg/mL
MMP9, Mean (3 µM): 3048 pg/mL
CCl2, individual value (3 µM): 1488 pg/mL and 1567 pg/mL
CXCL1, individual value (3 µM): 6461 pg/mL and 6697 pg/mL
CXCL2, individual value (3 µM): 5747 pg/mL and 4996 pg/mL
MMP9, individual value (3 µM): 3040 pg/mL and 3056 pg/mL
CCl2, % reduction (10 µM): -56%
CXCL1 % reduction (10 µM): -10%
CXCL2 % reduction (10 µM): 2%
MMP9 % reduction (10 µM): 7.45%
CCl2, Mean (10 µM): 1950 pg/mL
CXCL1, Mean (10 µM): 6547 pg/mL
CXCL2, Mean (10 µM): 4953 pg/mL
MMP9, Mean (10 µM): 2874 pg/mL
CCl2, individual value (10 µM): 1899 pg/mL and 2002 pg/mL
CXCL1, individual value (10 µM): 6457 pg/mL and 6637 pg/mL
CXCL2, individual value (10 µM): 4894 pg/mL and 5012 pg/mL
MMP9, individual value (10 µM): 2884 pg/mL and 2864 pg/mL
CCl2, % reduction (30 µM): -138%
CXCL1 % reduction (30 µM): 8%
CXCL2 % reduction (30 µM): 10%
MMP9 % reduction (30 µM): 5%
CCl2, Mean (30 µM): 2956 pg/mL
CXCL1, Mean (30 µM): 5474 pg/mL
CXCL2, Mean (30 µM): 4573 pg/mL
MMP9, Mean (30 µM): 2917 pg/mL
CCl2, individual value (30 µM): 3047 pg/mL and 2865 pg/mL
CXCL1, individual value (30 µM): 5594 pg/mL and 5354 pg/mL
CXCL2, individual value (30 µM): 4609 pg/mL and 4537 pg/mL
MMP9, individual value (30 µM): 2925 pg/mL and 2908 pg/mL
CCl2, % reduction (100 µM): -63%
CXCL1 % reduction (100 µM): 55%
CXCL2 % reduction (100 µM): 16%
CCl2, Mean (100 µM): 2038 pg/mL
CXCL1, Mean (100 µM): 2693 pg/mL
CXCL2, Mean (100 µM): 4264 pg/mL
MMP9, Mean (100 µM): 2975 pg/mL
CCl2, individual value (100 µM): 1970 pg/mL and 2105 pg/mL
CXCL1, individual value (100 µM): 2693 pg/mL
CXCL2, individual value (100 µM): 4200 pg/mL and 4328 pg/mL
MMP9, individual value (100 µM): 2977 pg/mL and 2972 pg/mL
GM-CSF % reduction [1]: 1.46%
GM-CSF [pg/mL], Mean [1]: 648 pg/mL
GM-CSF [pg/mL], individual value [1]: 664 pg/mL and 632 pg/mL
IL-1β % reduction [1]: 4.49%
IL-1β [pg/mL], Mean [1]: 12211 pg/mL
IL-1β [pg/mL], individual value [1]: 11901 pg/mL
IL-6 % reduction [1]: -0.732%
IL-6 [pg/mL], Mean [1]: 35164 pg/mL
IL-6 [pg/mL], individual value [1]: 34554 pg/mL and 35775 pg/mL
IL-8 % reduction [1]: -1.46%
IL-8 [pg/mL], Mean [1]: 3019 pg/mL
IL-8 [pg/mL], individual value [1]: 3072 pg/mL and 2966 pg/mL
TNF-α % reduction [1]: -24%
